Results reported in patent US8507219B2, “Method of treating inflammation with statins” (MUSC Foundation for Research Development, priority 1997, dated 2013).

How the values were obtained:
[1] = system: control human skin fibroblasts; experiment: β-oxidation of lignoceric acid in control human skin fibroblasts; assay type: cell-based; settings: 72 h; forskolin 4 μM; 1,9 dideoxy forskolin 4 μM; 8-Br-cAMP 50 μM; H-89 1 μM; myristoylated PKI 0.2 μM; Control 565.2 ± 48.3
[2] = system: IL-1β production in rat primary microglia; experiment: LPS-induced IL-1β production (ELISA) in rat primary microglia; assay type: cell-based; settings: 10 μM forskolin or 20 μM rolipram 15 min, then LPS 1.0 μg/ml, 24 h
Protocol: (§1) Determination of TNF-α and IL-1β in culture supernatants Cells were stimulated with LPS in serum-free media for 24 h in the presence or absence of forskolin or rolipram, and concentrations of TNF-α and IL-1β were measured in culture supernatants by using high-sensitivity enzyme-linked immunosorbent assay (R&D Systems, USA) according to the manufacturer's instructions.

[3] = system: cultured skin fibroblasts of X-ALD; experiment: VLCFA ratios (C26:0/C22:0, C24:0/C22:0) in X-ALD skin fibroblasts; assay type: cell-based, human
[4] = system: iNOS activity in rat primary astrocytes; experiment: iNOS activity (arginine to citrulline) in homogenates of treated rat primary astrocytes; assay type: cell-based; settings: Rattus norvegicus, Astrocyte, LPS 1 μg/ml, 24 h
Protocol: NOS activity was measured directly by production of L-[2,3,4,5-^3H]citrulline from L-[2,3,4,5-^3H] arginine (Feinstein et al., 1994a). […] Assays were carried out for 30 to 40 min and the production of L-[2,3,4,5-^3H] citrulline was linear. The reactions were stopped by addition of 800 μl of ice-cold 20 mM HEPES (pH 5.5) followed by addition of 2 ml of Dowex-50W equilibrated in the same buffer. The samples were then centrifuged and the concentration of L-[^3H]citrulline was determined in the supernatant by liquid scintillation counting.
Dose Dependence of Forskolin Inhibition of the LPS Stimulation of iNOS Astrocytes were incubated with different concentrations of forskolin 15 min before the addition of 1 μg/ml LPS, and after 24 h the iNOS activity was measured as nitrite concentrations in the supernatant and conversion of arginine to citrulline in the cellular homogenates (FIG. 1). The level of nitrite and iNOS activity were inhibited to a similar degree at all the concentrations of forskolin tested. […] . […] This may be due to the fact that PKA was already completely activated in extracts of cells incubated with 10 μM forskolin. The PKA activity increased with the increase in forskolin concentration. The reciprocal relationship of production of NO and iNOS activity with PKA activity supports the conclusion that PKA plays a pivotal role in the regulation of iNOS expression in astrocytes.

control skin fibroblasts = experiment: VLCFA ratios in control skin fibroblasts; assay type: cell-based, human; settings: two weeks forskolin
Protocol: Measurement of VLCFA in Fibroblasts Fatty acid methyl ester (FAME) was prepared as described previously by Lepage and Roy (1986) with modifications. Fibroblast cells, suspended in HBSS, were disrupted by sonication to form a homogeneous solution. An aliquot (200 μl) of this solution was transferred to a glass tube and […] heptacosanoic (27:0) acid was added as internal standard and lipids were extracted by Folch partition. Fatty acids were transesterified with acetyl chloride (200 μl) in the presence of methanol and benzene (4:1) for 2 h at 100° C. The solution was cooled down to room temperature followed by addition of 5 ml 6% potassium carbonate solution at ice-cooled temperature. Isolation and purification of FAME were carried out as detailed by Dacremont et al. (1995). […]

[5] = system: TNF-α production in rat primary microglia; experiment: LPS-induced TNF-α production (ELISA) in rat primary microglia; assay type: cell-based; settings: 10 μM forskolin or 20 μM rolipram 15 min, then LPS 1.0 μg/ml, 24 h
Protocol: as §1

PKA = PKA activity (Kemptide phosphorylation) in rat primary astrocytes; assay type: cell-based; settings: optimal concentration of forskolin, LPS 1.0 μg/ml, 1 h; taken as 100%
[6] = system: TNF-α production in rat primary astrocytes; experiment: LPS-induced TNF-α production (ELISA) in rat primary astrocytes; assay type: cell-based; settings: forskolin 10 μM; 8-Br-cAMP 100 μM; rolipram 20 μM; H-89 2 μM; myristoylated PKI 0.4 μM
Protocol: as §1

[7] = inferred from reports in mice and marmoset (Sommer et al., 1995); cited from earlier work
[8] = system: IL-1β production in rat primary astrocytes; experiment: LPS-induced IL-1β production (ELISA) in rat primary astrocytes; assay type: cell-based; settings: forskolin 10 μM; 8-Br-cAMP 100 μM; rolipram 20 μM; H-89 2 μM; myristoylated PKI 0.4 μM
Protocol: as §1

[9] = system: cultured skin fibroblasts of X-ALD; experiment: β-oxidation of lignoceric acid in cultured skin fibroblasts of X-ALD; assay type: cell-based, human

SMILES	Lignoceric acid β-oxidation [1] [pmol/h/mg protein]	Production of IL-1β [2] [ng/24 h/mg protein]	days of treatment until the ratios of C26:0/C22:0 and C24:0/C22:0 decreased to the normal level ([3]; X-ALD fibroblasts, forskolin 4 μM, lovastatin 5 μM, combination of lovastatin and NaPA) [days]	inhibition at 0.1 µM ([4]; forskolin 0.1 μM (lowest dose with significant effect)) [%]	inhibition at 10 µM ([4]; forskolin 10 μM) [%]	ratio of C26:0/C22:0 (control skin fibroblasts; from 0.04)	ratio of C24:0/C22:0 (control skin fibroblasts; from 1.23)	Production of TNF-α [5] [ng/24 h/mg protein]	PKA activity (PKA) [pmol/min/mg]	LPS-stimulated production of TNF-α [6]	ratios of C26:0/C22:0 and C24:0/C22:0 / level of VLCFA ([3]; about 15 days of treatment)	crossing of the blood brain barrier [7]	LPS-stimulated production of IL-1β [8]	Lignoceric acid β-oxidation ([9]; 72 h, forskolin 4 μM, 8-Br-cAMP 50 μM, rolipram 10 μM, H-89 1 μM, myristoylated PKI 0.2 μM)	increase of the oxidation of lignoceric acid ([9]; rolipram, two weeks, X-ALD fibroblasts with mutation or deletion) [%]
C=C[C@@]1(C)CC(=O)[C@]2(O)[C@@]3(C)[C@@H](O)CCC(C)(C)[C@@H]3[C@H](O)[C@H](OC(C)=O)[C@@]2(C)O1 [forskolin]	885.3 ± 62.1	1.9 ± 0.2	12 to 15	30	~90	0.029	1.12	0.9 ± 0.1	74.4 ± 9.4	–	–	–	–	–	–
COc1ccc(C2CNC(=O)C2)cc1OC1CCCC1 (centres unmarked) [Rolipram]	–	2.3 ± 0.3	–	–	–	–	–	1.2 ± 0.09	–	inhibited the LPS-stimulated production	normalized the levels of VLCFA in these cell lines	does cross the blood brain barrier	inhibited the LPS-stimulated production	stimulated lignoceric acid β-oxidation	50 to 65
